Experimental findings from PMC12108418, “Broad-Spectrum Gramicidin S Derivatives with Potent Activity Against Multidrug-Resistant Gram-Negative ESKAPE Pathogens” (Antibiotics, 2025) are described below.

What all share (type): cell-based
Assay [1] relates to Klebsiella pneumoniae (ATCC 33495). Particulars: ATCC 33495. The protocol: (§1) The antibacterial efficacy of peptides was assessed using the broth microdilution method in accordance with Clinical and Laboratory Standards Institute (CLSI) guidelines (M07-A10, 2015 [33]). The minimum inhibitory concentrations (MICs) were determined against Escherichia coli (ATCC 25922), Klebsiella pneumoniae (ATCC 33495), Pseudomonas aeruginosa (ATCC 27853), Acinetobacter baumannii (ATCC 19606), and Staphylococcus aureus (ATCC 29213 and ATCC USA300). Bacterial suspensions were standardised to 5 × 10^4 colony-forming units (CFUs)/well in cation-adjusted Mueller–Hinton broth (CAMHB). Peptides were dissolved in 25% DMSO and serially diluted two-fold across 96-well plates, reaching final concentrations ranging from 256 to 0.125 µg/mL. The wells were inoculated, ensuring a final volume of 100 µL per well, with a DMSO concentration of 1% (v/v) to minimise solvent interference. […] Vancomycin was used as the positive control for S. aureus. Polymyxin B served as the positive control for Gram-negative bacteria. CAMHB with 1% (v/v) DMSO (without peptides) was used as the negative control. All experiments were performed in triplicate (n = 3). Bacterial isolates were stored in tryptone soy broth with 30% glycerol at −80 °C for long-term preservation.

In assay [2] the test system is Escherichia coli (ATCC 25922). The protocol:
as §1

Assay [3] relates to Acinetobacter baumannii (ATCC 19606). The protocol: as §1
In assay [4] the test system is Pseudomonas aeruginosa (ATCC 27853). The following applies: ATCC 27853. The method, then:
as §1

Setting [5] is: broth microdilution in CAMHB, 5 × 10^4 CFU/well, 1% DMSO, 37 °C, 16–20 h, 256 to 0.125 µg/mL, triplicate (n = 3).

Converted amounts (≈) assume the structure as drawn. Read-outs that look alike come from different tables or passages of the source. Square brackets hold non-standard residues; d marks the D form. Peptide text beside a SMILES is read from it. Tle = CC(C)(C)[C@H](N)C(=O)O; Orn = NCCC[C@H](N)C(=O)O

In the case of `CC(C)C[C@@H]1NC(=O)[C@H](CCCN)NC(=O)[C@H](C(C)C)NC(=O)[C@@H]2CCCN2C(=O)[C@@H](Cc2ccccc2)NC(=O)[C@H](CC(C)C)NC(=O)[C@H](CCCN)NC(=O)[C@H](C(C)C)NC(=O)[C@@H]2CCCN2C(=O)[C@@H](Cc2ccccc2)NC1=O` [GS, gramicidin S] (cyclo(V[Orn]L[dF]PV[Orn]L[dF]P)), the “MIC K. pneumonia ATCC 33495” value in assay [1] turned out to be 128 µg/mL (≈ 112 µM). In addition, the “MIC E. coli ATCC 25922” value in assay [2] (ATCC 25922) is 32 µg/mL (≈ 28 µM). For the same compound, the “MIC A. baumannii ATCC 19606” value in assay [3] (ATCC 19606) is 8 µg/mL (≈ 7.01 µM). For the same compound, the “MIC P. aeruginosa ATCC 27853” value in assay [4] amounted to 128 µg/mL (≈ 112 µM).
Take `CC(C)C[C@@H]1NC(=O)[C@H](CCCN)NC(=O)[C@H](C(C)C)NC(=O)[C@@H]2CCCN2C(=O)[C@@H](Cc2ccccc2)NC(=O)[C@H](CC(C)C)NC(=O)[C@H](CCCN)NC(=O)[C@H](C(C)C)NC(=O)[C@H](Cc2c[nH]c3ccccc23)NC(=O)[C@@H](Cc2ccccc2)NC1=O` [Peptide 2] (cyclo(L[dF]PV[Orn]L[dF]WV[Orn])): in assay [1], the “MIC K. pneumonia ATCC 33495” value is over 256 µg/mL. For the same compound, the “MIC E. coli ATCC 25922” value in assay [2] (ATCC 25922) worked out at 256 µg/mL (≈ 208 µM). The “MIC A. baumannii ATCC 19606” value in assay [3] (ATCC 19606) was determined as 64 µg/mL (≈ 52 µM). Further, the “MIC P. aeruginosa ATCC 27853” value in assay [4] is given as over 256 µg/mL.
`CC(C)C[C@@H]1NC(=O)[C@H](CCCN)NC(=O)[C@H](C(C)C)NC(=O)[C@@H]2CCCN2C(=O)[C@@H](Cc2ccccc2)NC(=O)[C@H](CC(C)C)NC(=O)[C@H](CCCN)NC(=O)[C@H](C(C)C)NC(=O)[C@H](Cc2c[nH]c3ccccc23)NC(=O)[C@@H](Cc2c[nH]c3ccccc23)NC1=O` [Peptide 3] (cyclo(L[dF]PV[Orn]L[dW]WV[Orn])): in assay [1], the “MIC K. pneumonia ATCC 33495” value is over 256 µg/mL. Further, the “MIC E. coli ATCC 25922” value in assay [2] (setting [5]) is over 256 µg/mL. For the same compound, the “MIC A. baumannii ATCC 19606” value in assay [3] (ATCC 19606) is 128 µg/mL (≈ 101 µM). Besides, the “MIC P. aeruginosa ATCC 27853” value in assay [4] is recorded as over 256 µg/mL.
With `CC(C)C[C@@H]1NC(=O)[C@H](CCCN)NC(=O)[C@H](C(C)C)NC(=O)[C@H](Cc2c[nH]c3ccccc23)NC(=O)[C@@H](Cc2ccccc2)NC(=O)[C@H](CC(C)C)NC(=O)[C@H](CCCN)NC(=O)[C@H](C(C)C)NC(=O)[C@H](Cc2c[nH]c3ccccc23)NC(=O)[C@@H](Cc2ccccc2)NC1=O` [Peptide 4] (cyclo(L[dF]WV[Orn]L[dF]WV[Orn])), the “MIC K. pneumonia ATCC 33495” value in assay [1] is reported as over 256 µg/mL. The “MIC E. coli ATCC 25922” value in assay [2] (setting [5]) is reported as over 256 µg/mL. Further, the “MIC A. baumannii ATCC 19606” value in assay [3] (setting [5]) was over 256 µg/mL. Also, in assay [4], the “MIC P. aeruginosa ATCC 27853” value is given as over 256 µg/mL.
In the case of `CC(C)C[C@@H]1NC(=O)[C@H](CCCN)NC(=O)[C@H](C(C)C)NC(=O)[C@H](Cc2c[nH]c3ccccc23)NC(=O)[C@@H](Cc2c[nH]c3ccccc23)NC(=O)[C@H](CC(C)C)NC(=O)[C@H](CCCN)NC(=O)[C@H](C(C)C)NC(=O)[C@H](Cc2c[nH]c3ccccc23)NC(=O)[C@@H](Cc2ccccc2)NC1=O` [Peptide 5] (cyclo(L[dF]WV[Orn]L[dW]WV[Orn])), in assay [1], the “MIC K. pneumonia ATCC 33495” value is over 256 µg/mL. Moreover, in assay [2] (setting [5]), the “MIC E. coli ATCC 25922” value is listed as over 256 µg/mL. Moreover, the “MIC A. baumannii ATCC 19606” value in assay [3] (setting [5]) is recorded as over 256 µg/mL. Besides, in assay [4], the “MIC P. aeruginosa ATCC 27853” value is on record as over 256 µg/mL.
With `CC(C)C[C@@H]1NC(=O)[C@H](CCCN)NC(=O)[C@H](C(C)C)NC(=O)[C@@H]2CCCN2C(=O)[C@@H](Cc2ccccc2)NC(=O)[C@H](CC(C)C)NC(=O)[C@H](CCCN)NC(=O)[C@H](C(C)C)NC(=O)[C@H](Cc2c[nH]c3ccccc23)NC(=O)[C@@H](CCCNC(=N)N)NC1=O` [Peptide 8] (cyclo(L[dF]PV[Orn]L[dR]WV[Orn])), the “MIC K. pneumonia ATCC 33495” value in assay [1] was determined as 16 µg/mL (≈ 12.9 µM). The “MIC E. coli ATCC 25922” value in assay [2] (setting [5]) is 8 µg/mL (≈ 6.45 µM). The “MIC A. baumannii ATCC 19606” value in assay [3] (ATCC 19606) stood at 8 µg/mL (≈ 6.45 µM). For the same compound, in assay [4], the “MIC P. aeruginosa ATCC 27853” value was found to be 32 µg/mL (≈ 25.8 µM).
Regarding `CC(C)C[C@@H]1NC(=O)[C@H](CCCN)NC(=O)[C@H](C(C)C)NC(=O)[C@@H]2CCCN2C(=O)[C@@H](Cc2ccccc2)NC(=O)[C@H](CC(C)C)NC(=O)[C@H](CCCN)NC(=O)[C@H](C(C)C)NC(=O)[C@@H]2CCCN2C(=O)[C@@H](CCCNC(=N)N)NC1=O` [Peptide 9] (cyclo(L[dF]PV[Orn]L[dR]PV[Orn])), in assay [1], the “MIC K. pneumonia ATCC 33495” value was found to be 16 µg/mL (≈ 13.9 µM). In assay [2] (ATCC 25922), the “MIC E. coli ATCC 25922” value is reported as 16 µg/mL (≈ 13.9 µM). In addition, the “MIC A. baumannii ATCC 19606” value in assay [3] (ATCC 19606) was 8 µg/mL (≈ 6.95 µM). In assay [4], the “MIC P. aeruginosa ATCC 27853” value turned out to be 32 µg/mL (≈ 27.8 µM).
For `CC(C)C[C@@H]1NC(=O)[C@H](CCCN)NC(=O)[C@H](C(C)C)NC(=O)[C@@H]2CCCN2C(=O)[C@@H](CCCNC(=N)N)NC(=O)[C@H](CC(C)C)NC(=O)[C@H](CCCN)NC(=O)[C@H](C(C)C)NC(=O)[C@H](Cc2c[nH]c3ccccc23)NC(=O)[C@@H](Cc2ccccc2)NC1=O` [Peptide 10] (cyclo(L[dF]WV[Orn]L[dR]PV[Orn])), the “MIC K. pneumonia ATCC 33495” value in assay [1] came to 32 µg/mL (≈ 25.8 µM). For the same compound, the “MIC E. coli ATCC 25922” value in assay [2] (ATCC 25922) was 16 µg/mL (≈ 12.9 µM). The “MIC A. baumannii ATCC 19606” value in assay [3] (ATCC 19606) was determined as 8 µg/mL (≈ 6.45 µM). Moreover, the “MIC P. aeruginosa ATCC 27853” value in assay [4] was determined as 32 µg/mL (≈ 25.8 µM).
In the case of `CC(C)C[C@@H]1NC(=O)[C@H](CCCN)NC(=O)[C@H](C(C)C)NC(=O)[C@H](Cc2c[nH]c3ccccc23)NC(=O)[C@@H](Cc2ccccc2)NC(=O)[C@H](CC(C)C)NC(=O)[C@H](CCCN)NC(=O)[C@H](C(C)C)NC(=O)[C@H](Cc2c[nH]c3ccccc23)NC(=O)[C@@H](CCCNC(=N)N)NC1=O` [Peptide 11] (cyclo(L[dF]WV[Orn]L[dR]WV[Orn])), in assay [1], the “MIC K. pneumonia ATCC 33495” value amounted to 16 µg/mL (≈ 12 µM). The “MIC E. coli ATCC 25922” value in assay [2] (ATCC 25922) amounted to 16 µg/mL (≈ 12 µM). Further, in assay [3] (ATCC 19606), the “MIC A. baumannii ATCC 19606” value is recorded as 8 µg/mL (≈ 6.02 µM). For the same compound, the “MIC P. aeruginosa ATCC 27853” value in assay [4] was determined as 32 µg/mL (≈ 24.1 µM).
Regarding `CC(C)C[C@@H]1NC(=O)[C@H](CCCN)NC(=O)[C@H](C(C)(C)C)NC(=O)[C@@H]2CCCN2C(=O)[C@@H](Cc2ccccc2)NC(=O)[C@H](CC(C)C)NC(=O)[C@H](CCCN)NC(=O)[C@H](C(C)C)NC(=O)[C@@H]2CCCN2C(=O)[C@@H](Cc2ccccc2)NC1=O` [Peptide 12] (cyclo(L[dF]P[Tle][Orn]L[dF]PV[Orn])), the “MIC K. pneumonia ATCC 33495” value in assay [1] is given as 128 µg/mL (≈ 111 µM). The “MIC E. coli ATCC 25922” value in assay [2] (ATCC 25922) was found to be 32 µg/mL (≈ 27.7 µM). The “MIC A. baumannii ATCC 19606” value in assay [3] (ATCC 19606) worked out at 8 µg/mL (≈ 6.92 µM). For the same compound, in assay [4], the “MIC P. aeruginosa ATCC 27853” value was found to be 128 µg/mL (≈ 111 µM).
